Measured values published in patent US10039758B2 (priority 2014, dated 2018).
“Also recorded” adds a separate entry of the source. Read-outs that look alike come from different tables or passages of the source.

Legend:
[1] = biological target: purified human cathepsin B (Homo sapiens, UniProt P07858); format: biochemical; conditions: 4, 8, 16, 33, 66 uM, without drug pre-incubation (FIG. 16)
cathepsin B [2] = biological target: T1, cathepsin B (Mus musculus, UniProt P10605); format: cell-based; conditions: RAW264.7, 4-66 uM, 1 hour before lysis (FIG. 17)
cathepsin B [3] = biological target: T1, cathepsin B; format: biochemical; conditions: RAW264.7 lysate, 4-66 uM (FIG. 18)
[4] = system: anthrax lethal toxin (LF-PA), RAW264.7 cells; format: cell-based, mouse
Ebola virus (Kikwit) = assay: microbe, parasite or virus in culture; format: cell-based; conditions: Zaire ebolavirus, HeLa, 48 h
[5] = system: diphtheria toxin, C32 human melanoma cell line; format: cell-based
Ebola virus = conditions: cited from earlier work
endosomal acidification = conditions: cited from earlier work
[6] = system: anthrax toxin (12 μg LF + 40 μg PA); design: species or system Sprague-Dawley rats; conditions: rat, in vivo
caspase-1 = format: cell-based, mouse
MEK2 = format: cell-based, mouse
LF = LF (Bacillus anthracis, UniProt P15917); format: biochemical
PA+FP59, RAW264.7 cells = format: cell-based, mouse
PA = format: cell-based, mouse
acidic organelles = format: cell-based, mouse; conditions: RAW264.7, AQ 1 hour, 500 ng/ml PA 1 hour
cathepsin B [7] = biological target: cathepsin B (Homo sapiens, UniProt P07858); format: binding
[8] = system: Respiratory syncytial virus (RSV): Strain A-2; assay: microbe, parasite or virus in culture; format: cell-based; conditions: human respiratory syncytial virus, HEp-2
[9] = system: Clostridium difficile Toxin B, RAW264.7 cells
[10] = system: Human Cytomegalovirus (CMV Strain AD169); conditions: Human Cytomegalovirus assay
in vitro [11] = assay: in vitro
in vitro [12] = conditions: human
in vitro [13] = conditions: human; remark: listed apart in the source
Chikungunya virus (CHIV) = assay: microbe, parasite or virus in culture; conditions: HFF-1
[14] = system: host lysosomal cathepsin B; conditions: cited from earlier work

T1 sequence (P10605 80-333): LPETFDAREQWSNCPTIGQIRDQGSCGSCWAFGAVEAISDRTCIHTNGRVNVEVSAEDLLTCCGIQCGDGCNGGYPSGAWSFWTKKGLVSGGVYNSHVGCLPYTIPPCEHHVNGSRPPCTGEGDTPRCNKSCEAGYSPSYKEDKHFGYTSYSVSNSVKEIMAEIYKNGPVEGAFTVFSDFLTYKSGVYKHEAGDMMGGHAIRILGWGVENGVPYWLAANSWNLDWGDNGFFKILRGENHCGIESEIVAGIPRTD
LF, sequence (P15917 34-809 limits assumed): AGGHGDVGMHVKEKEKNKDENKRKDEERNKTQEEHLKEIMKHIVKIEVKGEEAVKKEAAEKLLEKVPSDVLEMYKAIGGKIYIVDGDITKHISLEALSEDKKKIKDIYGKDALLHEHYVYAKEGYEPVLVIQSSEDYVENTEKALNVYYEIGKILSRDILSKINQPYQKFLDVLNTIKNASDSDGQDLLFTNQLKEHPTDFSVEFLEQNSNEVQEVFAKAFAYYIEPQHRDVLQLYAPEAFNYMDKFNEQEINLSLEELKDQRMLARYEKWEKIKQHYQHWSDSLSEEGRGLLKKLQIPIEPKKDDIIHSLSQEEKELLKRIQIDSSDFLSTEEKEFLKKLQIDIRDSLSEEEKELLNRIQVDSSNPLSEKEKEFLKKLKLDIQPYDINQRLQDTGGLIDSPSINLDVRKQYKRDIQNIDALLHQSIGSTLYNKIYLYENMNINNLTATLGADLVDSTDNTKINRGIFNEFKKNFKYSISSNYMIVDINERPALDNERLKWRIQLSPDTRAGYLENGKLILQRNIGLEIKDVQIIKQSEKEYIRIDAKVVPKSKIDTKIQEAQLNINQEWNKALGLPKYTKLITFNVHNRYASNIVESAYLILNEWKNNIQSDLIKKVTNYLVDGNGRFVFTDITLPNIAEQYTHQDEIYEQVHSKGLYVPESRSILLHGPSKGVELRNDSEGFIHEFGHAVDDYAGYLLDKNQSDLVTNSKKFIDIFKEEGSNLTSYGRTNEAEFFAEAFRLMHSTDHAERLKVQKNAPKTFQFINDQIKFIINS

CCNCCCC(C)Nc1ccnc2cc(Cl)ccc12 (stereo not drawn) [DECQ, Desethyl-Chloroquine]
inhibition of cathepsin B activity, purified human cathepsin B [1]: weaker inhibitors of cathepsin B activity | cathepsin B enzymatic activity in cells pre-treated with drug (cathepsin B [2]): weaker inhibitors of cathepsin B activity | cathepsin B activity in protein lysate from cells not exposed to drugs prior to lysis (cathepsin B [3]): weaker inhibitors of cathepsin B activity

CCNCc1cc(Nc2ccnc3cc(Cl)ccc23)ccc1O [DEAQ, N-Desethyl Amodiaquine]
protection of host cells against anthrax toxin killing (cell survival) [4]: increased survival | inhibition of cathepsin B activity, purified human cathepsin B [1]: directly inhibit cathepsin B activity in a dose dependent manner | cathepsin B enzymatic activity in cells pre-treated with drug (cathepsin B [2]): lost cathepsin B enzymatic activity in a dose dependent manner | cathepsin B activity in protein lysate from cells not exposed to drugs prior to lysis (cathepsin B [3]): inhibited cathepsin B activity | EC50 (Ebola virus (Kikwit)): 3.6 µM

CCN(CC)CCCC(C)Nc1ccnc2cc(Cl)ccc12 (stereo not drawn) [CQ, Chloroquine]
multiplex hit in JHCCL screen: inhibition of anthrax and diphtheria toxin cell killing [5]: inhibited anthrax and diphtheria toxins | inhibition of cathepsin B activity, purified human cathepsin B [1]: weaker inhibitors of cathepsin B activity | cathepsin B enzymatic activity in cells pre-treated with drug (cathepsin B [2]): weaker inhibitors of cathepsin B activity | cathepsin B activity in protein lysate from cells not exposed to drugs prior to lysis (cathepsin B [3]): weaker inhibitors of cathepsin B activity | inhibition of Ebola virus pathogenicity in cells (Ebola virus): inhibit Ebola virus pathogenicity in cells | endosomal acidification (endosomal acidification): prevent endosomal acidification

COc1cc(NC(C)CCCN)c2ncccc2c1 (stereo not drawn) [Primaquine]
protection of host cells against anthrax toxin killing (cell survival) [4]: none of the other quinoline-containing antimalarial compounds, Cinchonine, Primaquine, and Quinidine, from JHCCL were active

CCN(CC)Cc1cc(Nc2ccnc3cc(Cl)ccc23)ccc1O [AQ, Amodiaquine]
protection of host cells against anthrax toxin killing (cell survival) [4]: increased survival; also recorded: completely protect | sensitivity of host cells to PA83+LF versus PA63+LF [4]: equally reduces sensitivity of host cells to both PA83+LF and PA63+LF treatments | multiplex hit in JHCCL screen: inhibition of anthrax and diphtheria toxin cell killing [5]: inhibited anthrax and diphtheria toxins | survival of C32 cells exposed to diphtheria toxin [5]: increase survival | clinical signs of toxin challenge [6]: all of the animals in that group displayed classical signs of having undergone a toxin challenge | survival and toxin-associated symptoms [6]: survived; also recorded: protected all of the rats; also recorded: all survived without displaying toxin-associated symptoms | active caspase-1 (FLICA fluorescence) after LF-PA (caspase-1): not detected | cleavage of MEK2 by LF in cells (immunoblot) (MEK2): completely prevented this effect | proteolytic activity of LF on MAPKK peptide (emission at 523 nm) (LF): does not block the proteolytic activity of LF | sensitivity of cells to PA+FP59 (PA+FP59, RAW264.7 cells): less sensitive to treatment with PA+FP59 | binding of PA83 to cells and proteolytic processing of PA to PA63 (PA): did not block binding of PA83 to cells or block proteolytic processing of PA to generate PA63 | cell-associated Lysosensor fluorescence (endosomal acidification) (acidic organelles): markedly decreased cell-associated Lysosensor fluorescence | inhibition of cathepsin B activity, purified human cathepsin B [1]: directly inhibit cathepsin B activity in a dose dependent manner | cathepsin B enzymatic activity in cells pre-treated with drug (cathepsin B [2]): lost cathepsin B enzymatic activity in a dose dependent manner | cathepsin B activity in protein lysate from cells not exposed to drugs prior to lysis (cathepsin B [3]): inhibited cathepsin B activity | binding to cathepsin B (STD difference spectrum) (cathepsin B [7]; 2 mM AQ, 20 μM cathepsin B): binding to the enzyme | STD effect, atom H4 (cathepsin B [7]; relative to the H4 atom (100%)): 100% | STD effect, atom H5 (cathepsin B [7]; relative to the H4 atom (100%)): 97% | EC50 (Ebola virus (Kikwit)): 3.8 µM | EC50 [8]: 32 µM | survival of RAW264.7 macrophages exposed to Clostridium difficile Toxin B [9]: increase survival | CC50 [10]: > 60 µM | inhibition of Ebola virus pathogenicity in cells (Ebola virus): inhibit Ebola virus pathogenicity in cells | CC50 (in vitro [11]): 31 µM | CC50 (in vitro [12]): 50 µM | CC50 (in vitro [13]): > 50 µM | EC50 (Chikungunya virus (CHIV)): 18.3 µM

C=C[C@H]1C[N@@]2CC[C@H]1C[C@@H]2[C@@H](O)c1ccnc2ccccc12 [Cinchonine]
protection of host cells against anthrax toxin killing (cell survival) [4]: none of the other quinoline-containing antimalarial compounds, Cinchonine, Primaquine, and Quinidine, from JHCCL were active

CA-074
effect of cathepsin B inhibition on cellular sensitivity to LF-PA [14]: reduction of cellular sensitivity to LF-PA

C=C[C@H]1C[N@@]2CC[C@H]1C[C@@H]2[C@@H](O)c1ccnc2ccc(OC)cc12 [Quinidine]
protection of host cells against anthrax toxin killing (cell survival) [4]: none of the other quinoline-containing antimalarial compounds, Cinchonine, Primaquine, and Quinidine, from JHCCL were active
